# Patent US6673749B1, “Use of phyllocladane diterpenoids for plant growth promotion and alleviation of growth retardant allelochemicals, and method therefor” (Council of Scientific and Industrial Research, priority 2002, dated 2004)
# Tests used:
# Type in all cases: in vivo
# [1] = system: Hibiscus sabdariffa; experiment: Antagonistic effect with Artemisia annua seed extract on germination and seedling growth; conditions: A. annua seed extract (1.3 g seeds/100 ml) alone or mixed 1:1 with 0.01 μm compound, control = 100%
# Protocol: (§1) On the other hand, it is evident from Exp. 1-4 that phyllocladane diterpenenoids have produced germination and growth promoting activities on various plant species. To find out the combined effect of A. annua extract and phyllocladane diterpenoides on the germination and seedling growth of different plant species, 1:1 ratio of these compounds and A.annua extract were tested in the present experiment. For this, Hibiscus sabdariffa and Sesbania cannabina seeds were germinated in A.annua seed extract and solutions prepared by mixing this extract with 0.01 μm calliterpenone and calliterpenone mono-acetate respectively (Table 7). For the preparation of A.annua extract, 1.3 g seeds were soaked in 100 ml of distilled water for 24 hrs for testing on H. sabdariffa. Since, at this concentration, seeds of this species have shown 69% mortality which may be taken as good indicator. This effect was also recorded in S.cannabina. Since, in this case, seeds were almost half in weight as compared to the seeds of H. sabdariffa, accordingly, 0.65 g A. annua seeds were soaked in 100 ml of distilled water for 24 hrs to produce identical constraints in S. cannabina. For control, seeds were germinated in distilled water and all the observations were compared with it. […] Therefore, calliterpenone and its derivatives can be used to nullify the effects of other growth retardants/allelochemicals in the fields for their reclamation.
# [2] = system: Sesbania cannabina; experiment: as above; conditions: A. annua seed extract (0.65 g seeds/100 ml) alone or mixed 1:1 with 0.01 μm compound, control = 100%
# Protocol: as §1
# [3] = system: Trigonella foenum-graecum; experiment: Seed germination and seedling shoot/root growth test in petridishes; conditions: for Percent (%) germination of seeds in relation to control on 9th day after sowing / Percent (%) root growth of seedlings in relation to control on 9th day after sowing / Percent (%) shoot growth of seedlings in relation to control on 9th day after sowing: Trigonella foenum graecum, control = 100%
# How it was run: (§2)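 Ten seeds per 9.0 cm dish on filter paper wetted with 0.1, 0.01 or 0.001 μM compound solution (ethanol or acetone cosolvent, matched in controls), in triplicate. Incubated 9 days at 25.0±1.0 °C, 90% humidity, 4 hr light/day. Germination and shoot and root length expressed relative to control taken as 100%.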
# [4] = system: Vigna radiata; experiment: as above; conditions: Vigna radiata, control = 100%
# How it was run: as §2
# [5] = system: Triticum aestivum; experiment: as above; conditions: control = 100%
# How it was run: as §2
# [6] = system: Hordeum vulgare; experiment: as above; conditions: control = 100%
# How it was run: as §2
# [7] = system: Hibiscus sabdariffa; experiment: Seed germination and seedling growth, comparison with GA3 (Example 4)
# Protocol: (§3) 100 ml stalk solutions of 0.1 μM concentration were prepared by dissolving required amounts of various test compounds (depending upon their molecular weights) in minimum amount of ethanol or acetone and adding distilled water. From this stalk solution, 0.01 μM and 0.001 μM concentrations were prepared. Calliterpenone and calliterpenone di acetate was dissolved in 2.0 ml absolute ethanol (Merc), while; calliterpenone monoacetate, isopropylideno calliterpenone and trihydroxy calliterpenone were dissolved in 2.0 ml spectral grade acetone (Ranbaxy). The respective control test solutions of distilled water of each concentration also contained equal amount of absolute ethanol or acetone. For an assay, 10 seeds were placed on Whatman filter paper (moistened with 5.0 ml of test solution in a 9.0 cm diameter petridish (in triplicate). The pteridishes were incubated for 9 days in a germinator, maintained at 25.0±1.0° C. with 90% humidity and 4 hr light/day. At the end of incubation, observations were recorded on the seedlings in terms of germination, shoot and root growth. The data on the length of shoot and root of seedlings and number of seeds germinated in different concentrations of compounds were compared with the control, which was taken as 100%. The data thus obtained were presented in Table-1.
# (§4) Effect of calliterpenone and its derivatives on seed germination and seedling growth in Hibiscus sabdariffa and Sesbania cannabina were measured in the similar way as these were measured in Example-1.
# [8] = system: Sesbania cannabina; experiment: as above
# Protocol: as §3, §4
smiles,measurement,setting,value
"CC(=O)OCC1(O)CC23CCC4C(C)(C)C(=O)CCC4(C)C2CCC1C3 (stereo not shown) [Calliterpenone Monoacetate, calliterpenone monoacetate]",Percent (%) germination in relation to control on the 9th day after sowing,[1],completely checked the inhibitory effect
same,"Percent (%) seedling growth, Root, in relation to control on the 9th day after sowing",[1],172%
same,"Percent (%) seedling growth, Stem, in relation to control on the 9th day after sowing",[1],169%
same,Percent (%) germination in relation to control on the 9th day after sowing,[2],completely checked the inhibitory effect
same,"Percent (%) seedling growth, Root, in relation to control on the 9th day after sowing",[2],175%
same,"Percent (%) seedling growth, Stem, in relation to control on the 9th day after sowing",[2],175%
same,Percent (%) germination of seeds in relation to control on 9th day after sowing,[3]; 0.001 μM,113%
same,Percent (%) root growth of seedlings in relation to control on 9th day after sowing,[3]; 0.001 μM,131%
same,Percent (%) shoot growth of seedlings in relation to control on 9th day after sowing,[3]; 0.001 μM,135%
same,Percent (%) germination of seeds in relation to control on 9th day after sowing,[3]; 0.01 μM,113%
same,Percent (%) root growth of seedlings in relation to control on 9th day after sowing,[3]; 0.01 μM,95%
same,Percent (%) shoot growth of seedlings in relation to control on 9th day after sowing,[3]; 0.01 μM,134%
same,Percent (%) germination of seeds in relation to control on 9th day after sowing,[3]; 0.1 μM,113%
same,Percent (%) root growth of seedlings in relation to control on 9th day after sowing,[3]; 0.1 μM,81%
same,Percent (%) shoot growth of seedlings in relation to control on 9th day after sowing,[3]; 0.1 μM,133%
same,Seed germination as compared to 100% in control,"[3]; Trigonella foenum-graceum, concentration not specified",113%
same,Percent (%) germination of seeds in relation to control on 9th day after sowing,[4]; 0.001 μM,100%
same,Percent (%) root growth of seedlings in relation to control on 9th day after sowing,[4]; 0.001 μM,104%
same,Percent (%) shoot growth of seedlings in relation to control on 9th day after sowing,[4]; 0.001 μM,138%
same,Percent (%) germination of seeds in relation to control on 9th day after sowing,[4]; 0.01 μM,150%
same,Percent (%) root growth of seedlings in relation to control on 9th day after sowing,[4]; 0.01 μM,85%
same,Percent (%) shoot growth of seedlings in relation to control on 9th day after sowing,[4]; 0.01 μM,130%
same,Percent (%) germination of seeds in relation to control on 9th day after sowing,[4]; 0.1 μM,200%
same,Percent (%) root growth of seedlings in relation to control on 9th day after sowing,[4]; 0.1 μM,67%
same,Percent (%) shoot growth of seedlings in relation to control on 9th day after sowing,[4]; 0.1 μM,123%
same,Percent (%) germination of seeds in relation to control on 9th day after sowing,[5]; 0.001 μM,100%
same,Percent (%) root growth of seedlings in relation to control on 9th day after sowing,[5]; 0.001 μM,145%
same,Percent (%) shoot growth of seedlings in relation to control on 9th day after sowing,[5]; 0.001 μM,106%
same,Percent (%) germination of seeds in relation to control on 9th day after sowing,[5]; 0.01 μM,100%
same,Percent (%) root growth of seedlings in relation to control on 9th day after sowing,[5]; 0.01 μM,102%
same,Percent (%) shoot growth of seedlings in relation to control on 9th day after sowing,[5]; 0.01 μM,107%
same,Percent (%) germination of seeds in relation to control on 9th day after sowing,[5]; 0.1 μM,100%
same,Percent (%) root growth of seedlings in relation to control on 9th day after sowing,[5]; 0.1 μM,88%
same,Percent (%) shoot growth of seedlings in relation to control on 9th day after sowing,[5]; 0.1 μM,109%
same,Percent (%) germination of seeds in relation to control on 9th day after sowing,[6]; 0.001 μM,100%
same,Percent (%) root growth of seedlings in relation to control on 9th day after sowing,[6]; 0.001 μM,146%
same,Percent (%) shoot growth of seedlings in relation to control on 9th day after sowing,[6]; 0.001 μM,113%
same,Percent (%) germination of seeds in relation to control on 9th day after sowing,[6]; 0.01 μM,100%
same,Percent (%) root growth of seedlings in relation to control on 9th day after sowing,[6]; 0.01 μM,114%
same,Percent (%) shoot growth of seedlings in relation to control on 9th day after sowing,[6]; 0.01 μM,117%
same,Percent (%) germination of seeds in relation to control on 9th day after sowing,[6]; 0.1 μM,100%
same,Percent (%) root growth of seedlings in relation to control on 9th day after sowing,[6]; 0.1 μM,124%
same,Percent (%) shoot growth of seedlings in relation to control on 9th day after sowing,[6]; 0.1 μM,118%
same,Enhancement in germination (in words),[7],did not produce any enhancement in germination
same,Seed Ger.,[7]; 0.001 μM,3
same,Root Growth (mm) 3rd Day,[7]; 0.001 μM,16.3 mm
same,Shoot growth 3rd Day,[7]; 0.001 μM,28.8
same,Root Growth (mm) 6th Day,[7]; 0.001 μM,19.3 mm
same,Shoot growth 6th Day,[7]; 0.001 μM,85.8
same,Root Growth (mm) 9th Day,[7]; 0.001 μM,24.8 mm
same,Shoot growth 9th Day,[7]; 0.001 μM,91.6
same,Seed Ger.,[7]; 0.01 μM,2
same,Root Growth (mm) 3rd Day,[7]; 0.01 μM,17.5 mm
same,Shoot growth 3rd Day,[7]; 0.01 μM,33.5
same,Root Growth (mm) 6th Day,[7]; 0.01 μM,18.3 mm
same,Shoot growth 6th Day,[7]; 0.01 μM,67.5
same,Root Growth (mm) 9th Day,[7]; 0.01 μM,21.3 mm
same,Shoot growth 9th Day,[7]; 0.01 μM,75.2
same,Seed Ger.,[7]; 0.1 μM,0
same,Root growth as compared to respective control,[8]; 0.001 μM,114%
same,Seed Ger.,[8]; 0.001 μM,3
same,Shoot growth as compared to respective control,[8]; 0.001 μM,109%
same,Root Growth (mm) 3rd Day,[8]; 0.001 μM,40.0 mm
same,Shoot growth 3rd Day,[8]; 0.001 μM,44.0
same,Root Growth (mm) 6th Day,[8]; 0.001 μM,40.0 mm
same,Shoot growth 6th Day,[8]; 0.001 μM,110.0
same,Root Growth (mm) 9th Day,"[8]; 0.001 μM, 9th day",57.0 mm
same,Root growth as compared to GA3 taken as 100%,"[8]; 0.001 μM, 9th day",143%
same,Shoot growth 9th Day,"[8]; 0.001 μM, 9th day",120
same,Seed Ger.,[8]; 0.01 μM,3
same,Root Growth (mm) 3rd Day,[8]; 0.01 μM,28.3 mm
same,Shoot growth 3rd Day,[8]; 0.01 μM,20.0
same,Root Growth (mm) 6th Day,[8]; 0.01 μM,28.4 mm
same,Shoot growth 6th Day,[8]; 0.01 μM,57.8
same,Root Growth (mm) 9th Day,"[8]; 0.01 μM, 9th day",45.1 mm
same,Shoot growth 9th Day,"[8]; 0.01 μM, 9th day",78.2
same,Seed Ger.,[8]; 0.1 μM,2
same,Root Growth (mm) 3rd Day,[8]; 0.1 μM,5.5 mm
same,Shoot growth 3rd Day,[8]; 0.1 μM,11.0
same,Root Growth (mm) 6th Day,[8]; 0.1 μM,7.5 mm
same,Shoot growth 6th Day,[8]; 0.1 μM,50.0
same,Root Growth (mm) 9th Day,"[8]; 0.1 μM, 9th day",23.0 mm
same,Shoot growth 9th Day,"[8]; 0.1 μM, 9th day",66.0
same,Germination as compared to GA3 treatments,[8]; concentration not given,150%
same,Germination as compared to its control,[8]; concentration not given,150%
